Assay results published in the supplement of paper PMC10307832.

Tests used:
Assay in all cases: relative viability (nuclei count vs DMSO), 5 days (fraction); higher = more cells survive
[1] = compound: C1COCCN1C2=NC(=NC3=C2OC4=C3C=CC=N4)C5=CC(=CC=C5)NC(=O)C6=CN=C(C=C6)N
How it was run: (§1)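 Hoechst staining, done together with fixation and permeabilisation, marked nuclei for 4× imaging and MetaXpress counting. This followed 5 days without medium change after lung cancer cell lines, kept overnight at 37 °C in 1536-well plates, were pinned with five library-drug doses (not always all listed) spaced by √10 on vehicle-anchored plates. Viability is the ratio of treated-well to vehicle-well nuclei, expressed as a median across plates. Plates passed only at control CV below 25% with at least one doubling.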

SGI-1776 = compound: CN1CCC(CNc2ccc3ncc(-c4cccc(OC(F)(F)F)c4)n3n2)CC1 [SGI-1776]
How it was run: as §1

Entinostat = compound: Nc1ccccc1NC(=O)c1ccc(CNC(=O)OCc2cccnc2)cc1 [Entinostat]
How it was run: as §1

SGI-1776 + Dasatinib = compound: CN1CCC(CNc2ccc3ncc(-c4cccc(OC(F)(F)F)c4)n3n2)CC1 [SGI-1776] + Cc1nc(Nc2ncc(C(=O)Nc3c(C)cccc3Cl)s2)cc(N2CCN(CCO)CC2)n1 [Dasatinib] (partner 0.075 µM)
How it was run: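 Dosing by pin tool came one day after lung cancer cell lines were seeded in 1536-well plates, using either one drug or a fixed anchor-drug dose plus five library-drug doses (not always all listed) in √10 steps. After 5 days, nuclei were counted on 4× images. Relative viability is treated-well nuclei count divided by vehicle-well nuclei count, and values are medians of duplicate plates.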

| Cell Line | relative viability ([1]; 0.02 µM) | relative viability ([1]; 0.06325 µM) | relative viability ([1]; 0.2 µM) | relative viability ([1]; 0.6325 µM) | relative viability ([1]; 2 µM) | relative viability (SGI-1776; 0.08 µM) | relative viability (SGI-1776; 0.8 µM) | relative viability (SGI-1776; 2.53 µM) | relative viability (SGI-1776; 8 µM) | relative viability (Entinostat; 0.02 µM) | relative viability (Entinostat; 0.06325 µM) | relative viability (Entinostat; 0.2 µM) | relative viability (Entinostat; 0.6325 µM) | relative viability (Entinostat; 2 µM) | relative viability (SGI-1776 + Dasatinib; first compound 0.08 µM) | relative viability (SGI-1776 + Dasatinib; first compound 0.8 µM) | relative viability (SGI-1776 + Dasatinib; first compound 2.53 µM) | relative viability (SGI-1776 + Dasatinib; first compound 8 µM) |
| --- | --- | --- | --- | --- | --- | --- | --- | --- | --- | --- | --- | --- | --- | --- | --- | --- | --- | --- |
| HCC-366 | 1.03 | 1.07 | 1.05 | 1.04 | 0.738 | 0.957 | 1.02 | 0.989 | 1.02 | 1.03 | 1.09 | 0.943 | 0.515 | 0.154 | 0.595 | 0.669 | 0.517 | 0.524 |
| HCC-827 | 1.03 | 1.07 | 1.07 | 1.1 | 0.941 | 1.08 | 1.09 | 1.13 | 0.968 | 1.01 | 0.986 | 0.954 | 0.657 | 0.535 | 0.352 | 0.33 | 0.255 | 0.227 |
| HOP-62 | 0.974 | 1.15 | 1.09 | 0.961 | 0.762 | 1.09 | 0.956 | 1.05 | 0.998 | 1.05 | 0.974 | 0.97 | 0.633 | 0.356 | 0.724 | 0.679 | 0.531 | 0.597 |
| IA-LM | 0.895 | 0.924 | 0.716 | 0.847 | 0.442 | 0.999 | 1.02 | 0.97 | 0.87 | 0.975 | 1.01 | 1.08 | 0.887 | 0.651 |  |  |  |  |
| LC-2-ad | 0.965 | 1.06 | 0.937 | 0.932 | 0.788 | 0.984 | 1.05 | 1.09 | 0.815 | 1.02 | 0.972 | 0.942 | 0.48 | 0.315 | 0.726 | 0.521 | 0.397 | 0.402 |
| LCLC-97TM1 | 1.03 | 0.99 | 0.994 | 1.1 | 0.905 | 1.01 | 1.03 | 1.11 | 1.01 | 1.1 | 1.11 | 1.02 | 0.732 | 0.702 | 0.783 | 0.938 | 0.85 | 0.949 |
| LCLC-103H | 0.913 | 1.06 | 1.07 | 0.978 | 0.815 | 1.02 | 0.998 | 0.964 | 0.924 | 1.03 | 1.06 | 0.942 | 0.721 | 0.454 | 0.527 | 0.479 | 0.535 | 0.432 |
| LK-2 | 0.998 | 1.08 | 1.09 | 0.757 | 0.585 | 1.09 | 1.03 | 1.03 | 0.77 | 1.04 | 1.03 | 0.868 | 0.652 | 0.349 | 0.301 | 0.354 | 0.253 | 0.173 |
| LOU-NH91 | 0.955 | 1.01 | 0.948 | 0.925 | 0.897 | 1.02 | 1.03 | 0.969 | 0.713 | 1.05 | 1.11 | 1 | 0.897 | 0.739 | 0.571 | 0.597 | 0.555 | 0.43 |
| LU99A | 0.966 | 0.956 | 0.859 | 0.777 | 0.564 | 0.948 | 1.03 | 0.964 | 0.861 | 0.918 | 0.93 | 0.871 | 0.69 | 0.603 | 0.727 | 0.56 | 0.382 | 0.441 |
| LXF-289 | 1.06 | 1.03 | 1.07 | 0.995 | 0.8 | 1.01 | 1.05 | 1.05 | 0.959 | 1 | 0.978 | 0.952 | 0.711 | 0.63 | 0.222 | 0.224 | 0.148 | 0.161 |
| NCI-H23 | 0.937 | 0.843 | 0.869 | 0.854 | 0.654 | 0.921 | 1.01 | 1.06 | 0.887 | 1.06 | 1.27 | 1.15 | 0.9 | 0.395 | 0.819 | 0.84 | 0.813 | 0.831 |
| NCI-H322M | 0.903 | 0.923 | 0.944 | 0.854 | 0.725 | 0.975 | 1.01 | 1.05 | 0.69 | 1.02 | 1.11 | 1.14 | 0.961 | 0.859 | 0.27 | 0.252 | 0.208 | 0.252 |
| NCI-H358 | 0.864 | 1.09 | 0.871 | 0.832 | 0.625 | 0.986 | 0.957 | 0.897 | 0.512 | 1.09 | 1.17 | 0.934 | 0.641 | 0.255 | 0.197 | 0.186 | 0.158 | 0.133 |
| NCI-H441 | 1.1 | 1.14 | 1.08 | 0.888 | 0.443 | 0.913 | 1.12 | 1.15 | 0.817 | 1.01 | 1.18 | 0.882 | 0.35 | 0.218 | 0.633 | 0.625 | 0.539 | 0.55 |
| NCI-H460 | 1.05 | 1.09 | 0.974 | 1.03 | 0.477 | 1.01 | 0.994 | 0.988 | 0.947 | 1.02 | 0.986 | 0.842 | 0.307 | 0.0693 | 0.52 | 0.543 | 0.508 | 0.299 |
| NCI-H1299 | 0.991 | 1.1 | 1.03 | 1.02 | 0.868 | 1.03 | 1.01 | 0.996 | 0.946 | 1.03 | 1 | 0.994 | 0.85 | 0.727 |  |  |  |  |
| NCI-H1648 | 0.93 | 0.788 | 0.853 | 0.538 | 0.794 | 1 | 0.884 | 0.844 | 0.767 | 1.09 | 1 | 0.823 | 0.639 | 0.526 |  |  |  |  |
| NCI-H1703 | 0.805 | 0.975 | 0.76 | 0.685 | 0.505 | 0.909 | 0.796 | 0.588 | 0.218 | 1.05 | 1.3 | 1.33 | 1.03 | 0.646 |  |  |  |  |
